Measurements published in US5545639A, “Method of inhibiting transformed cells” (The United States of America as represented by the …, priority 1994, dated 1996).
Like-named read-outs stand apart in the source and are kept apart here.

Columns and labels:
[1] = system: mouse L1210 leukemia cells; assay: Example 2: growth of mouse L1210 leukemia cells with monohalomethyl phenanthrolines, with/without copper and BCS; format: cell-based
Method: The aforementioned monohalomethyl compounds were prepared and characterized as described by Newkome et al., J. Org. Chem., 54, 1766-1769 (1989). The compounds were then added to different cultures of mouse L1210 leukemia cells alone (.smallcircle.), with copper sulfate (.quadrature.), with BCS (.circle-solid.), or with BCS and copper sulfate (.box-solid.). The concentrations of copper and BCS used in these experiments were 10 μM and 100 μM, respectively. Methods used to grow the cells and to administer the test compounds were standard methods, well known to ordinary practitioners, and were similar to those used in Example 1. The growth of the cells as a percent of controls were determined, and the results were plotted in the graph of FIG. 2.

[2] = system: L1210 mouse cells; assay: Example 3: growth of L1210 mouse cells with bis(halomethyl)phenanthrolines plus copper, with or without BCS; format: cell-based; details: copper 10 μM, BCS 100 μM
Method: Bis(halomethyl)phenanthroline compounds were synthesized according to the method of Newkome et al., J. Org. Chem., 48, 5112-5114 (1983). Such compounds, namely, 2,9-bis(bromomethyl)phenanthroline and 2,9-bis(chloromethyl)phenanthroline, were added in the presence of copper, but with or without BCS (the copper chelator shown in Examples 1 and 2 to reduce inhibitory activity), to the culture media of L1210 mouse cells, using the same methods of Examples 1 and 2. The concentrations of copper and BCS used in these experiments were 10 μM and 100 μM, respectively. The growth of the cells as a percent of control were determined, and the results plotted in the graph of FIG. 3, wherein open squares (.quadrature.) represent the compound plus copper chelate and solid squares (.box-solid.) represent the compound together with both copper and BCS addition to the culture medium.

[3] = system: mouse L1210 cells; details: coordinated copper complex, tissue culture; cited from earlier work
[4] = system: P388 murine lymphocytic leukemia cells; details: mice inoculated with P388 cells; 2,9-DMP treatment with copper; cited from earlier work
[5] = system: L1210 cells; details: 2,9-DMP with copper; cited from earlier work
[6] = system: mouse L1210 leukemia cells; assay: Example 1: growth of mouse L1210 leukemia cells with 2,9-DMP, with/without copper and BCS; format: cell-based; details: for activity at 0.4 µM: at concentrations above about 0.4 μM
Method: The phenanthroline derivative 2,9-DMP was added to a culture of mouse L1210 leukemia cells alone (.smallcircle.), with copper sulfate (.circle-solid.), and with copper sulfate and bathocuproine sulfonate (.quadrature.). The concentrations of copper sulfate and bathocuproine sulfonate used in these experiments were both 25 μM. Methods used to grow the cells and to administer the test compounds were standard methods, well known to ordinary practitioners. The growth of the cells as a percent of control was determined, and the results were plotted in the graph of FIG. 1.

## Cc1ccc2ccc3ccc(CCl)nc3c2n1 [2-CM-9-MP, 2-chloromethyl-9-methyl-1,10-phenanthroline]
[1]
  inhibitory activity compared with unhalogenated parent compound of Example 1: less than that of the unhalogenated parent compound

## Cc1ccc2ccc3ccc(CBr)nc3c2n1 [2-BM-9-MP, 2-bromomethyl-9-methyl-1,10-phenanthroline]
[1]
  inhibitory activity compared with unhalogenated parent compound of Example 1: less than that of the unhalogenated parent compound

## BrCc1ccc2ccc3ccc(CBr)nc3c2n1 [2,9-bis(bromomethyl)-1,10-phenanthroline]
[2]
  difference in inhibitory effect, presence vs absence of available copper (BCS): about 10%

## Cc1ccc2ccc3ccc(C)nc3c2n1 [2,9-DMP, 2,9-dimethyl-1,10-phenanthroline]
[3]
  concentration effective for killing of L1210 cells: nanomolar concentrations
[4]
  increase in life span: 45%
[5]
  inhibitory response of L1210 tumor in implanted animals: evident, although weak
[6]; Mus musculus, L1210, 2,9-DMP alone, read-out: cell growth as percent of control
  activity at 0.4 µM: < 20%
[6]; Mus musculus, L1210, with copper ion (copper sulfate 25 μM), at concentrations above about 0.1 μM, read-out: cell growth as percent of control
  activity at 0.1 µM: < 20%
[6]; Mus musculus, L1210, with copper ion (copper sulfate 25 μM), read-out: cell growth as percent of control
  activity at 0.4 µM: < 10%
[6]; copper chelated
  concentration inhibiting to the same level (20% of control) relative to copper-chelated monobrominated phenanthroline: less than one-tenth of that concentration
